Data as given in patent publication US20210330659A1, “USE OF NICOTINAMIDE COMPOSITION IN PREPARATION OF DRUG FOR TREATING HAND-FOOT SKIN REACTION INDUCED BY SORAFENIB” (ZHEJIANG UNIVERSITY, priority 2018, published 2021).

Legend:
[1] = tested on: keratin 1, keratin 10 and Loricrin in HaCaT cells; test: mRNA levels of keratinization indicators in HaCaT cells given HUVEC conditioned medium; format: cell-based
Description: (§1) HUVEC cells were administrated with 15 μM sorafenib. After that, the cells and the culture medium were separately collected, and the culture medium is concentrated. […] HUVEC culture medium treated with sorafenib, as a conditioned medium, was applied to HaCaT cells, and the expression of SIRT1 in the cells was detected. […] After HUVEC cells with HB-EGF knocked out were constructed, the culture medium obtained after administrated with sorafenib was administrated to the HaCaT cells, and mRNA levels of the keratinization progress indicators, i.e., keratin 1, keratin 10 and Loricrin, were detected. […] The HUVEC culture medium added with sorafenib, as the conditioned medium, was applied to the HaCaT cells in which SIRT1 was knocked out, and the mRNA levels of the three keratins were detected.
In an in vitro cell experimental model, HUVEC cells were administered with 15 μM sorafenib alone, and 15 μM sorafenib together with 10 μM nicotinamide, respectively. After 24 hours, the culture medium was collected as a conditioned medium for HaCaT cells, and the HaCaT cells were collected 24 hours later for the detection of mRNA levels of three keratins.

[2] = tested on: HB-EGF protein in HUVEC cells; test: Western blot of pro-HB-EGF in cell lysate and s-HB-EGF in culture medium of sorafenib-treated HUVEC cells; format: cell-based; conditions: 15 μM sorafenib, FIG. 1A
Description: as §1

[3] = tested on: SIRT1 in HaCaT cells; test: SIRT1 expression in HaCaT cells given sorafenib-treated HUVEC conditioned medium; format: cell-based; conditions: HaCaT cells given sorafenib-treated HUVEC culture medium as conditioned medium, FIG. 1B
Description: as §1

[4] = patients treated with sorafenib; cited from earlier work

SMILES	mRNA levels of the three keratins (keratin 1, keratin 10, Loricrin) ([1]; HUVEC treated 24 h with 10 μM nicotinamide plus 15 μM sorafenib, medium applied to HaCaT for 24 h, compared with sorafenib alone, FIG. 2)	expression level of the HB-EGF protein in the cells (pro-HB-EGF, cell lysate) ([2]; HUVEC cells)	expression of HB-EGF protein in the culture medium (s-HB-EGF) ([2]; HUVEC culture medium, concentrated)	expression of SIRT1 in HaCaT cells [3]	mRNA levels of keratin 1, keratin 10 and Loricrin ([1]; HaCaT cells given medium of sorafenib-treated HUVEC cells with HB-EGF knocked out, FIG. 1C)	mRNA levels of keratin 1, keratin 10 and Loricrin ([1]; SIRT1-knocked-out HaCaT cells given sorafenib-treated HUVEC conditioned medium, FIG. 1D)	prevalence of hand-foot skin reaction (HFSR) [4]
NC(=O)c1cccnc1 [nicotinamide, 3-pyridinecarboxamide]	significantly down-regulated	–	–	–	–	–	–
CNC(=O)c1cc(Oc2ccc(NC(=O)Nc3ccc(Cl)c(C(F)(F)F)c3)cc2)ccn1 [sorafenib]	–	down-regulated	increased	up-regulated	down-regulated	also down-regulated	up to 60%
